Results: PubChem BioAssay (NCI)
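Cells were grown in 96-well plates and exposed to each compound for 48 hours at five concentrations; endpoints were interpolated linearly between bracketing concentrations, or set to the highest concentration if not reached. The concentration for 50% growth inhibition is given as GI50. TGI: total growth inhibition.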

Assays:
Assay in all cases: DTP human tumour cell line panel, 48 h
[1] = system: 786-0 renal
[2] = system: PC-3 prostate
[3] = system: SNB-75 CNS
[4] = system: HOP-62 NSCLC
[5] = system: MDA-MB-231 breast
[6] = system: EKVX NSCLC
[7] = system: HCC-2998 colon
[8] = system: T-47D breast
[9] = system: CAKI-1 renal
[10] = system: HL-60(TB) leukemia
[11] = system: TK-10 renal
[12] = system: SNB-19 CNS
[13] = system: SK-OV-3 ovarian
[14] = system: MDA-MB-435
[15] = system: UO-31 renal
[16] = system: OVCAR-4 ovarian
[17] = system: SF-268 CNS
[18] = system: M14 melanoma
[19] = system: UACC-257 melanoma
[20] = system: SF-539 CNS
[21] = system: NCI-H460 lung
[22] = system: OVCAR-3 ovarian
[23] = system: CCRF-CEM leukemia
[24] = system: LOX IMVI melanoma
[25] = system: OVCAR-5 ovarian
[26] = system: NCI-H522 lung
[27] = system: NCI-H226 lung
[28] = system: SF-295 CNS
[29] = system: UACC-62 melanoma
[30] = system: SK-MEL-2 melanoma
[31] = system: IGROV1 ovarian
[32] = system: KM12 colon
[33] = system: HT29 colon
[34] = system: NCI-H23 lung
[35] = system: ACHN renal
[36] = system: COLO 205 colon
[37] = system: K-562 leukemia
[38] = system: HCT-15 colon
[39] = system: RPMI-8226 leukemia
[40] = system: SR leukemia
[41] = system: HCT-116 colon
[42] = system: BT-549 breast
[43] = system: SK-MEL-5 melanoma
[44] = system: A549 NSCLC
[45] = system: OVCAR-8 ovarian
[46] = system: MALME-3M melanoma
[47] = system: MOLT-4 leukemia
[48] = system: A498 renal
[49] = system: SN12C renal
[50] = system: NCI/ADR-RES ovarian

COc1ccc(-c2nc3sccn3c2/C=C/C(=O)c2cc(OC)c(OC)c(OC)c2)cc1OC
GI50 [1]: 3.36 µM | TGI [1]: 20.4 µM | GI50 [2]: 2210 nM | TGI [2]: 6.96 µM | GI50 [3]: 1990 nM | TGI [3]: 5.43 µM | GI50 [4]: 2580 nM | TGI [4]: 6.68 µM | GI50 [5]: 2870 nM | TGI [5]: 27.7 µM | GI50 [6]: 3.92 µM | TGI [6]: > 100 µM | GI50 [7]: 2720 nM | TGI [7]: 4.79 µM | GI50 [8]: 1720 nM | TGI [8]: 5.83 µM | GI50 [9]: 3.01 µM | TGI [9]: > 100 µM | GI50 [10]: 1840 nM | TGI [10]: 4.98 µM | GI50 [11]: 4.8 µM | TGI [11]: > 100 µM | GI50 [12]: 2450 nM | TGI [12]: 6.3 µM | GI50 [13]: 2900 nM | TGI [13]: 8.07 µM | GI50 [14]: 2840 nM | TGI [14]: 19.1 µM | GI50 [15]: 639 nM | TGI [15]: 8.19 µM | GI50 [16]: 2850 nM | TGI [16]: 77.2 µM | GI50 [17]: 2360 nM | TGI [17]: 6.44 µM | GI50 [18]: 3.1 µM | TGI [18]: 9.3 µM | GI50 [19]: 2650 nM | TGI [19]: 7.17 µM | GI50 [20]: 1780 nM | TGI [20]: 3.74 µM | GI50 [21]: 1990 nM | TGI [21]: 3.76 µM | GI50 [22]: 2180 nM | TGI [22]: 5.71 µM | GI50 [23]: 2640 nM | TGI [23]: > 100 µM | GI50 [24]: 2600 nM | TGI [24]: 10 µM | GI50 [25]: 2450 nM | TGI [25]: 7.02 µM | GI50 [26]: 1300 nM | TGI [26]: 3.77 µM | GI50 [27]: 2160 nM | TGI [27]: 9.84 µM | GI50 [28]: 3.08 µM | TGI [28]: 24 µM | GI50 [29]: 2150 nM | TGI [29]: 5.55 µM | GI50 [30]: 1870 nM | TGI [30]: 4.65 µM | GI50 [31]: 1200 nM | TGI [31]: 3.31 µM | GI50 [32]: 2040 nM | TGI [32]: 4.53 µM | GI50 [33]: 3.48 µM | TGI [33]: 9.88 µM | GI50 [34]: 2160 nM | TGI [34]: 5.89 µM | GI50 [35]: 3.24 µM | TGI [35]: > 100 µM | GI50 [36]: 2410 nM | TGI [36]: 5.98 µM | GI50 [37]: 2410 nM | TGI [37]: > 100 µM | GI50 [38]: 3.24 µM | TGI [38]: > 100 µM | GI50 [39]: 1190 nM | TGI [39]: 4.95 µM | GI50 [40]: 1300 nM | TGI [40]: 4.15 µM | GI50 [41]: 2310 nM | TGI [41]: 6.44 µM | GI50 [42]: 2430 nM | TGI [42]: 7.95 µM | GI50 [43]: 1540 nM | TGI [43]: 2990 nM | GI50 [44]: 2620 nM | TGI [44]: 6.03 µM | GI50 [45]: 2470 nM | TGI [45]: 7.15 µM | GI50 [46]: 3.33 µM | TGI [46]: 54.1 µM | GI50 [47]: 2070 nM | TGI [47]: 6.47 µM | GI50 [48]: 2600 nM | TGI [48]: 8.2 µM | GI50 [49]: 3.06 µM | TGI [49]: 42.8 µM | GI50 [50]: 2270 nM | TGI [50]: 5.98 µM
